Source: ChEMBL document CHEMBL3430912, “GSK Tres Cantos Anti-Kinetoplastid Screening (TCAKS) Data”

Columns and labels:
Trypanosoma cruzi [1] = assay: (§1) GSK_TCAKS: pIC50 H2C9 Imaging: H9c2 Host Cardiomyocytes. […] Cells were then washed once with PBS before infection. T. cruzi trypomastigotes, collected at days 5 to 8 after infection from LLC-MK2 parasite infected cultures, were allowed to swim out for 4h at 37C from a centrifuged pellet (2,500 rpm/10 min/room temperature). Trypomastigotes were then collected and counted in a CASY Cell Counter. Trypomastigotes, in supplemented DMEM, were added to H9c2 cultures in a multiplicity of infection of 1 and incubated for 18 h. Cells were washed once with PBS before incubation of the infected H9c2 monolayer with trypsin (Life-Technologies) to detach cells from the flask. Cells were counted in a CASY Cell Counter using a 150 um capillary and their density set at 5 * 10^4 cells per mL in supplemented assay DMEM. Infected H9c2 were dispensed into 384-well poly-lysine coated assay plates at 50uL per well using a Multidrop Combi dispenser. After seeding them, the plates were incubated at 37C, 5% CO2 for 72h. Cultures were then fixed and stained by addition of 50 uL of a solution containing 8% formaldehyde and 4 uM DRAQ5 DNA dye (BioStatus, UK) per well. […] Five images were collected per well for reliable statistical analysis. Automated image analysis was performed with a script developed on Acapella High Content Imaging and Analysis Software (PerkinElmer). Output: Number of H9c2 Host Cardiomyocytes nuclei to determine drug-related cytotoxicity.; assay type: functional, organism-based, Rattus norvegicus; details: H9c2, 4 h
Trypanosoma cruzi [2] = assay: as §1, with “Trypanosoma cruzi” for “H2C9”, “Amastigotes/Cell.” for “H9c2 Host Cardiomyocytes.”, “number” for “Number”, “amastigotes per cell as infection level measurement.” for “H9c2 Host Cardiomyocytes nuclei to determine drug-related cytotoxicity.”; assay type: functional, organism-based, Rattus norvegicus; details: H9c2, 4 h
Leishmania donovani [3] = assay: (§2) GSK_TCAKS: pIC50 Leishmania donovani Imaging: THP-1 Host Macrophages. Assay plates (384-well) were prepared by adding 250nL of compound to each well. For single shot assay, the final compound concentration was 5 uM. […] Automated image analysis was performed with a script developed on Acapella High Content Imaging and Analysis Software (PerkinElmer). Output: THP-1 cell count were reported for each well.; assay type: functional, organism-based, Homo sapiens
[4] = test system: Trypanosoma brucei brucei; assay: GSK_TCAKS: pIC50 Trypanosoma brucei viability assay using luminiscence. Assay plates (1536-well) were prepared. T. brucei cultures were harvested and counted in a CASY cell counter. A parasite suspension was prepared at a final concentration of 5 * 10^4 cells/mL in complete HMI9 medium and 6uL was dispensed to all wells containing compounds using a Multidrop Combi dispenser. 6uL of HMI9 media with 0.4% DMSO were dispensed to control columns. Plates were incubated for 24 h at 37C, 5% CO2 then tempered for 10 min at room temperature. ATP content was quantified by adding 4 uL of CellTiter-Glo Reagent (Promega) according to the manufacturer's instructions. Luminescence was measured using a ViewLux.; assay type: functional, organism-based; details: Lister 427, CASY
Trypanosoma cruzi [5] = assay: as §1, with “Trypanosoma cruzi” for “H2C9”, “Infected Cells.” for “H9c2 Host Cardiomyocytes.”, “percentage” for “Number”, “infected cells per well as a second infection marker.” for “H9c2 Host Cardiomyocytes nuclei to determine drug-related cytotoxicity.”; assay type: functional, organism-based, Rattus norvegicus; details: H9c2, 4 h
Leishmania donovani [6] = assay: as §2, with “Infected” for “THP-1 Host”, “Percent of infected macrophage cells” for “THP-1 cell count”; assay type: functional, organism-based, Homo sapiens; details: THP-1
Leishmania donovani [7] = assay: GSK_TCAKS: pIC50 Leishmania donovani viability assay using fluorescence intensity. Assay plates (1536-well) were prepared by adding 30nL per well of compound. For single shot assay, the final compound concentration was 5uM. […] Briefly, eGFP LdBOB axenic amastigotes were harvested, fixed and counted in a CASY cell counter (Roche-Applied Science). A final concentration of 1.5 * 10^5 cells per well were prepared in amastigote media containing 500 U/mL penicillin/streptomycin (Invitrogen) and 6uL was dispensed to each experimental well using a Multidrop Combi dispenser (Thermo Scientific). 6uL of assay media was dispensed to control columns used as reference for 100% compound response. Following incubation for 72 h at 37C, 5% CO2, 2 uL of resazurin was added to each well at a final concentration of 0.5 mM in phosphate buffered saline (PBS) with IGEPAL (Sigma-Aldrich), 0.05% (v/v).; assay type: functional, organism-based
[8] = biological target: Sterol 14-alpha demethylase (Trypanosoma cruzi (strain CL Brener), UniProt Q7Z1V1); assay: GSK_TCAKS: pIC50 CYP51 from Trypanosoma cruzi.; assay type: functional
Sequence of Sterol 14-alpha demethylase (Q7Z1V1 whole entry): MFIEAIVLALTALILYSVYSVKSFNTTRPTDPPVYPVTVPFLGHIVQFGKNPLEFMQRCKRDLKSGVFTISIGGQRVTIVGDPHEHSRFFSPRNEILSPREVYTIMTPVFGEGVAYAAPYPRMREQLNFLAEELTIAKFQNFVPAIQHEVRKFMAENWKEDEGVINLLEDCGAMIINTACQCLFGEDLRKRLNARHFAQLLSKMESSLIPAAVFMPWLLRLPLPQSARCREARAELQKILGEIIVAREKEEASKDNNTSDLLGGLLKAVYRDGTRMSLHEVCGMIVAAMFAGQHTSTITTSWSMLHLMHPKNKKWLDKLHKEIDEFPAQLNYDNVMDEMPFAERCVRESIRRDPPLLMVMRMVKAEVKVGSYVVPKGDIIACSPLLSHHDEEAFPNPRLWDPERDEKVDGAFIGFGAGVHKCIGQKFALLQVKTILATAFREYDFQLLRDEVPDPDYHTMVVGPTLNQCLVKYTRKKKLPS

Trypanosoma cruzi [9] = assay: GSK_TCAKS: pIC50 Trypanosoma cruzi viability assay using beta-GAL activity. This assay was run at single shot at 5uM compound concentration per well. The biological reagents consisted of NIH-3T3 host cells and trypomastigotes parasitic cells; both cell types were set to a 3.3 * 10^5 cells/mL dilution in assay DMEM by means of a CASY cell counter device using a 60um capillary. 6 uL of the mixture were dispensed per well (about 1 * 10^3 host-cells and 1 * 10^3 parasites) with a Multidrop Combi dispenser. […] In all wells, the percentage of DMSO never exceeded 0.5%. Plates incubated for four days at 37C, 5% CO2. The substrate used for the assay fluorescence intensity (FLINT) readout was resorufin-beta-D-galactopiranoside (Sigma-Aldrich) at 5uM per well. It was diluted in PBS supplemented with the soft detergent Igepal (Fluka).; assay type: functional, organism-based, Mus musculus; details: Tulahuen, NIH3T3
Leishmania donovani [10] = assay: as §2, with “Amastigotes/Macrophages.” for “THP-1 Host Macrophages.”, “Average number of amastigotes per macrophage” for “THP-1”, “cell” for “cell count”; assay type: functional, organism-based, Homo sapiens; details: THP-1
[11] = GSK_TCAKS: pIC50 HepG2 human cell line viability assay using luminiscence. […] Seeding density was checked to ensure that new mono-layers were not more than 50% confluent at the time of harvesting. Cell suspension was added to 500 mL of the same medium at a final density of 1.2 * 10^5 cells/mL. This cell suspension was dispensed (25 uL, 3000 cells per well) into 384-well clear-bottom plates using a Multidrop Combi dispenser. Prior to addition of the cell suspension, the screening compounds (250 nL) were pre-dispensed into the plates with an Echo liquid handler. Plates were incubated for 48 h at 37C, 5% CO2. After incubation, plates equilibrated at room temperature for 30 min before proceeding to develop the luminescent signal. The signal developer, CellTiter-Glo Reagent, was allowed to equilibrate at room temperature for 30 min and added to the plates (25uL per well) using a Multidrop Combi dispenser. Plates were left for 10 min at room temperature for stabilization and then read using a ViewLux.; assay type: toxicity, cell-based
[12] = test system: Trypanosoma brucei brucei; assay: GSK_TCAKS: pIC50 Trypanosoma brucei viability assay using fluorescence intensity. Assay plates (1536-well) were prepared by dispensing 25nL of compound solution per well using an Echo acoustic dispenser (Labcyte).; assay type: functional, organism-based; details: Lister 427, 2 h

| SMILES | IC50 (Trypanosoma cruzi [1]) | IC50 (Trypanosoma cruzi [2]) | IC50 (Leishmania donovani [3]) | IC50 [4] | IC50 (Trypanosoma cruzi [5]) | IC50 (Leishmania donovani [6]) | IC50 (Leishmania donovani [7]) | IC50 [8] | IC50 (Trypanosoma cruzi [9]) | IC50 (Leishmania donovani [10]) | IC50 at 48 h [11] | IC50 [12] |
| --- | --- | --- | --- | --- | --- | --- | --- | --- | --- | --- | --- | --- |
| C[C@@H](Oc1cc(-n2cnc3cc(N)ccc32)sc1C(N)=O)c1ccccc1Cl | 1 µM | 5.01 µM | 25.1 µM | 0.794 µM | 20 µM | 31.6 µM | 3.16 µM | 3.16 µM | 1.26 µM | 20 µM | 20 µM | 0.251 µM |
| O=C(NCc1nnc2n1CCCCC2)c1csc(-c2ccccc2)n1 | > 50.1 µM | 2 µM | > 50.1 µM | 0.398 µM | 2 µM | > 50.1 µM | > 50.1 µM | > 100 µM | 2.51 µM | > 50.1 µM | > 100 µM | 0.316 µM |
| Cc1nc2c(-c3nc(-c4ccccc4N)n[nH]3)cccn2c1C | 5.01 µM | 1.58 µM | 7.94 µM | 2.51 µM | 2.51 µM | 1.58 µM | 6.31 µM | 3.16 µM | 4.47 µM | 1 µM | 15.8 µM | 1 µM |
| Cc1nc2c(-c3nc(-c4ccc(N)cc4)n[nH]3)cccn2c1C | 10 µM | > 50.1 µM | 12.6 µM | 25.1 µM | > 50.1 µM | 2 µM | 3.16 µM | > 100 µM | 6.31 µM | 1.58 µM | 15.8 µM | 12.6 µM |
| OC[C@@H](Nc1nccc(-c2c(-c3ccc(F)cc3)ncn2C2CCNCC2)n1)c1ccccc1 | 2 µM | 12.6 µM | 31.6 µM | 0.631 µM | 12.6 µM | 31.6 µM | > 50.1 µM | 25.1 µM | 31.6 µM | 31.6 µM | 100 µM | 0.398 µM |
| Cc1ccc2onc(Nc3ccnc(Nc4cccc(S(C)(=O)=O)c4)n3)c2c1 | 5.01 µM | 0.398 µM | 20 µM | 7.94 µM | 0.631 µM | 2 µM | 5.01 µM | 39.8 µM | 3.98 µM | 1 µM | 50.1 µM | 6.31 µM |
| Cn1nc(-c2ccc(NC(=O)Cc3ccccc3Cl)cc2)c2c(N)ncnc21 | 7.94 µM | 1 µM | > 50.1 µM | 0.251 µM | 1.26 µM | > 50.1 µM | > 50.1 µM | 63.1 µM | 2 µM | > 50.1 µM | > 100 µM | 0.398 µM |
| Cc1cc(Nc2ccc(C#N)c(Cl)c2C)[nH]n1 | > 50.1 µM | 20 µM | 20 µM | 0.251 µM | > 50.1 µM | > 50.1 µM | 50.1 µM | 39.8 µM | 25.1 µM | > 50.1 µM | > 100 µM | 0.00794 µM |
| Cc1c(Nc2cc(C3CC3)n[nH]2)ccc(C#N)c1Cl | 10 µM | 15.8 µM | 25.1 µM | 0.631 µM | 25.1 µM | 39.8 µM | 20 µM | 20 µM | 2.51 µM | 25.1 µM | 39.8 µM | 0.398 µM |
| CCOC(=O)c1cn[nH]c1S(=O)(=O)N1CCC1c1ccccc1 (stereo unspecified) | > 50.1 µM | > 50.1 µM | > 50.1 µM | 0.794 µM | > 50.1 µM | > 50.1 µM | > 50.1 µM | 50.1 µM | > 50.1 µM | > 50.1 µM | > 100 µM | 0.631 µM |
| COc1cc(-c2noc(CC#N)n2)ccc1OC(F)F | 31.6 µM | 25.1 µM | 50.1 µM | 0.631 µM | 39.8 µM | > 50.1 µM | > 50.1 µM | 100 µM | 39.8 µM | > 50.1 µM | > 100 µM | 0.631 µM |
| CS(=O)(=O)c1ccc(Nc2nccc(Nc3n[nH]c4ccc(F)cc34)n2)c(F)c1 | 15.8 µM | 3.98 µM | 15.8 µM | 0.794 µM | 31.6 µM | 12.6 µM | 12.6 µM | 39.8 µM | 7.94 µM | 10 µM | 79.4 µM | 0.501 µM |
| Cc1nc2c(-c3ncn[nH]3)cc(NC(=O)Cc3ccccc3)cn2c1C | 6.31 µM | 0.794 µM | 7.94 µM | 10 µM | 1 µM | 0.398 µM | 0.794 µM | 10 µM | 1 µM | 0.316 µM | 15.8 µM | 3.16 µM |
| Cc1[nH]nc(Nc2ccnc3[nH]ccc23)c1C | > 50.1 µM | > 50.1 µM | > 50.1 µM | 0.251 µM | > 50.1 µM | > 50.1 µM | > 50.1 µM | 79.4 µM | 3.98 µM | > 50.1 µM | > 100 µM | 0.126 µM |
| COc1cc(Nc2nccc(Nc3onc(C)c3C)n2)cc(S(=O)(=O)C2CCOCC2)c1 | 10 µM | 12.6 µM | 39.8 µM | 0.501 µM | 25.1 µM | > 50.1 µM | 39.8 µM | 7.94 µM | 6.31 µM | 5.01 µM | 31.6 µM | 0.501 µM |
| O=C(NCCc1ccn(-c2ccccc2)n1)C1CCCCC1 | > 50.1 µM | 1 µM | > 50.1 µM | 0.316 µM | 1 µM | > 50.1 µM | > 50.1 µM | 100 µM | 1.26 µM | > 50.1 µM | > 100 µM | 0.251 µM |
| CC(C)(C)C(=O)Nc1cc(C2CC2)nn1-c1nc2c(c(=O)[nH]1)CCCC2 | 2 µM | 0.126 µM | 7.94 µM | 0.2 µM | 0.501 µM | 5.01 µM | 0.0794 µM | > 100 µM | 0.501 µM | 2 µM | > 100 µM | 0.158 µM |
| Cc1cc(NC(=O)C2CCCCC2)n(-c2nc3c(c(=O)[nH]2)CCC3)n1 | 2 µM | 0.158 µM | 10 µM | 0.158 µM | 0.501 µM | 5.01 µM | 0.0398 µM | > 100 µM | 0.316 µM | 3.16 µM | 50.1 µM | 0.126 µM |
